Results published in ChEMBL document CHEMBL3600373, “Mapping Selective Inhibition of the Cancer-Related Carbonic Anhydrase IX Using Structure-Activity Relationships of Glucosyl-Based Sulfamates” (J Med Chem, 2015).
pKd, pKi: −log10 of the molar value.

How the values were obtained:
[1] = target: T1, Carbonic anhydrase 9 (Homo sapiens, UniProt Q16790)
Description: Inhibition of human recombinant CA9 expressed in Escherichia coli by stopped flow CO2 hydration assay

[2] = target: Carbonic anhydrase 12 (Homo sapiens, UniProt O43570); experiment: Inhibition of human recombinant CA12 expressed in Escherichia coli by stopped flow CO2 hydration assay
[3] = target: T1, Carbonic anhydrase 9; experiment: Binding affinity to human CA9
[4] = target: Carbonic anhydrase 2 (Homo sapiens, UniProt P00918); experiment: Binding affinity to human CA2

Chain of Carbonic anhydrase 12 (O43570 whole entry): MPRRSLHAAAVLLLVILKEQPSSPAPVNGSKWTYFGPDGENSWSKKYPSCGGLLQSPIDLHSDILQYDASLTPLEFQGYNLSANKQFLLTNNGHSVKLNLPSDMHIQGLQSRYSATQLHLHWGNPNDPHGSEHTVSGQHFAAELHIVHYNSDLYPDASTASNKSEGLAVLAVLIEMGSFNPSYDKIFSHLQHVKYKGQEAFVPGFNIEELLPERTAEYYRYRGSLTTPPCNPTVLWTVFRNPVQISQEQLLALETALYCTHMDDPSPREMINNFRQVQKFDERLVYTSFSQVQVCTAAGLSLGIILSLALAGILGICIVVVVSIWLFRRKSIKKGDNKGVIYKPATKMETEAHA

pKi [1]	pKi [2]	pKd [3]	pKd [4]	Compound
8.70	8.05	–	–	CC(=O)OC[C@H]1O[C@@H](S(=O)(=O)NCCCCCOS(N)(=O)=O)[C@H](OC(C)=O)[C@@H](OC(C)=O)[C@@H]1OC(C)=O
–	–	0.82	0.35	OC[C@H]1O[C@@](CO)(O[C@H]2O[C@H](CO)[C@@H](O)[C@H](O)[C@H]2O)[C@@H](O)[C@@H]1O [SUCROSE]
